Source: patent US9023876B2, “Compounds and methods for regulating integrins” (Adhaere Pharmaceuticals, Inc., priority 2010, dated 2015)
pEC50: −log10 of the molar value.

Tests used:
integrin CD11b/CD18 [1] = target: T1, integrin CD11b/CD18 (Homo sapiens, UniProt P11215); assay: K562 cell adhesion assay, K562 CD11b/CD18 cells on immobilized fibrinogen (Fg); format: cell-based
T1 construct: expressed in transfected cells; host or cells: K562
Description: (§1) Cell adhesion assays with immobilized ligands were performed as previously described. Assays with all different K562 cell lines (K562, K562 CD11b/CD18 and K562 E320A) were performed in an identical fashion. Briefly, 384-well Highbind microtiter plates were coated with a 30 μL solution of ligand in Phosphate Buffered Saline, pH 7.4 containing 1 mM each of Ca^2+ and Mg^2+ ions (PBS^++) overnight at 4° C. Ligand Fg was coated at a concentration of […] and iC3b at […]. Heterodimer specific mAb IB4 (ascites) was coated at a 1:100 dilution. Subsequently, the non-specific sites in the wells were blocked by incubation with 1% non-fat milk in Tris Buffered Saline (TBS), pH 7.4, at room temperature for 1 h, except for the neutrophil assay, where the wells were blocked with TBS containing 1% gelatin. Next, the wells were washed three times with TBS. K562 cells were suspended in the assay buffer (TBS containing 1 mM each of Ca^2+ and Mg^2+ ions (TBS^++)) and were transferred to the ligand-coated wells (30,000 cells/well). Stock solution of the leukadherin family of small molecule agonists was prepared by dissolving the compounds in DMSO at a concentration of 2-10 mM. Final concentration of DMSO in the assay was approximately 1%. […] Cells remaining adherent were fixed using formaldehyde and were quantitated using imaging microscopy, as previously described. […]

integrin CD11b/CD18 [2] = target: T1, integrin CD11b/CD18; assay: K562 CD11b/CD18 cell adhesion to immobilized iC3b; format: cell-based; conditions: increasing amounts of compound
Description: as §1

[3] = system: WT mouse macrophages and neutrophils; assay: Secretion of pro-inflammatory cytokines by stimulated WT mouse macrophages and neutrophils; format: cell-based; conditions: cells stimulated with LPS, TNFalpha or ILbeta
Description: We surmised that leukadherins may also suppress pro-inflammatory cytokine express-ion in leukocytes. […] In an experiment to test the effect of leukadherin treatment on secretion of pro-inflammatory cytokines by leukocytes, we stimulated WT mouse macrophages and neutrophils with LPS, TNFalpha or ILbeta in the absence or presence of two different concentrations of agonist LA1 and measured levels of pro-inflammatory cytokine in the cell supernatant. […] Leukadherins decrease secretion of pro-inflammatory factors, including microparticles, by beta2-integrin expressing cells. Additionally, they increase secretion of anti-inflammatory factors, such as IL-10.

K562 CD11b/CD18 cells = assay: Cell viability assay (MTS); format: cell-based; conditions: 24 h; concentrations as high as 50 μM
Description: Cell viability assay was performed as described. Briefly, K562 CD11b/CD18 cells (10,000/well) were incubated in 96 well plates (Corning, Corning, N.Y.) with increasing amounts of indicated compound for 24 h. The number of viable cells after 24 h was determined by using MTS reagent according to manufacturers protocol (Promega, Madison, Wis.) and using Spectramax M5 spectrophotometer (Molecular Devices) for reading of the assay plates. Data presented is representative of at least two independent experiments.

[4] = system: Tg(mpx::eGFP) zebrafish larvae; assay: Zebrafish tailfin injury assay; format: in vivo; conditions: 4 h post injury; vehicle 34.6±4.5
Description: Transgenic Tg(mpx::eGFP) were maintained according to standard protocols. Tailfin injury in three days post fertilization (dpf) larvae was performed as described. Larvae were anesthetized by immersion in E3 with […] tricane, and tail was completely transected with a sterile microdissection scalpel in accordance with the approved protocols and were recovered for the indicated time points. Zebrafish larvae (3 dpf) were treated with compounds as described (Ref). Briefly, small molecule compounds were administered by immersing the larvae in a solution of the compounds in E3. The final concentration of DMSO was kept at <1%. For the assessment of the inflammatory response, injured larvae were analyzed at 4 h post-injury. For the post-wash assay, uninjured larvae incubated with the compounds in E3 for 4-8 h, washed into E3 and injured. Larvae were analyzed using a Leica DMI6000B microscope and an Hamamatsu Orca-3CCD camera using Volocity. Excitation was performed using the laser at 488 nm and the images were analyzed using Volocity. The number of fluorescent neutrophils at the site of inflammation were counted by eye in a blinded fashion. […]

B6 male mice = assay: Renal I/R injury in mice; format: in vivo, mouse; conditions: given 30 min prior to I/R injury, 24 h post-ischemia, vs DMSO; not shown
Description: Leukadherins reduce renal I/R injury. To evaluate use of leukadherins in the I/R injury induced changes in the kidney function of WT mice, we performed another experiment. B6 male mice (8-12 weeks of age) were anesthetized and kept on a heating pad to keep them at a constant 37° C. temperature. Next, an abdominal incision was made and the renal pedicles were occluded bilaterally with a nontraumatic vascular clamp for 30 minutes, the clamp then removed and the surgical incision was closed. Sham surgery was performed with an identical procedure but without application of the clamps. Renal I/R injury was assessed at 24 h post-ischemia by measuring the serum creatinine levels. Mouse sera from the tail incision was used for the analyses of sCr (and BUN levels (not shown)) using manual kits (Stanbio Laboratory).

## O=C(O)c1ccc(-c2ccc(/C=C3\SC(=S)N(Cc4ccccc4)C3=O)o2)cc1 [LA1]
Integrin CD11b/CD18 [1]; K562 CD11b/CD18 cells, immobilized Fg, read-out: EC50 (effective concentration for 50% increase in adhesion), CD11b/CD18 dependent cell adhesion to Fg
  pEC50: 5.40
Integrin CD11b/CD18 [1]; cell-based adhesion assay
  relative affinity for CD11b/CD18 compared with IMB-10: higher affinity
Integrin CD11b/CD18 [2]
  K562 CD11b/CD18 cells adhering to immobilized iC3b: increase binding of CD11b/CD18 to iC3b in a dose-dependent fashion
[3]
  secretion of inflammatory factors (IL-6, TNFa, IL-1b, IFNg, MMP-9, soluble uPAR) in supernatant: significantly decreased
K562 CD11b/CD18 cells
  in vitro cytotoxicity to K562 cells: no cytotoxicity
[4]
  neutrophil accumulation in the zebrafish tailfin (number of neutrophils): 15.6±1.7
B6 male mice
  serum creatinine (sCr) levels: significant reduction
